Reference: ChEMBL document CHEMBL1124647, “Conformational analysis and molecular modeling of 1-phenyl-, 4-phenyl-, and 1-benzyl-1,2,3,4-tetrahydroisoquinolines as D1 dopamine receptor ligands” (J Med Chem, 1989)

What was measured:
[1] = target: D(1A) dopamine receptor (Homo sapiens, UniProt P21728); test: Binding potency of compound for Dopamine receptor D1 by displacing [3H]SCH-23390 radioligand
[2] = target: D(2) dopamine receptor (Homo sapiens, UniProt P14416); test: Binding potency of compound for Dopamine receptor D2 by displacement of [3H]spiperone
[3] = DSAC inhibitory potency obtained by the conversion of [32P]-ATP to [32P]-cAMP

Chain of D(1A) dopamine receptor (P21728 whole entry): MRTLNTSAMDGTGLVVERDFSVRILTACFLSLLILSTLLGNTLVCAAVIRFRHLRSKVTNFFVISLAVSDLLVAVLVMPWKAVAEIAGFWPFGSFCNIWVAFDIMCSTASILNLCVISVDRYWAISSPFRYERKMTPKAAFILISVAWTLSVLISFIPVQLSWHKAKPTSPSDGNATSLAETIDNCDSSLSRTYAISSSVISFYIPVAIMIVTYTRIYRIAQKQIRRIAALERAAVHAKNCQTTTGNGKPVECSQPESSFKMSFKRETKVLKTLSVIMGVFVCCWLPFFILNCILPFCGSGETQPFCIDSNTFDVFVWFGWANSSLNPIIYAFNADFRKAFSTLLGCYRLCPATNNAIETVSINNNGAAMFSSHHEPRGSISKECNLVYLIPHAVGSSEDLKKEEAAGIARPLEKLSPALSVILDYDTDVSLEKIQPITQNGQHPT
Chain of D(2) dopamine receptor (P14416 whole entry): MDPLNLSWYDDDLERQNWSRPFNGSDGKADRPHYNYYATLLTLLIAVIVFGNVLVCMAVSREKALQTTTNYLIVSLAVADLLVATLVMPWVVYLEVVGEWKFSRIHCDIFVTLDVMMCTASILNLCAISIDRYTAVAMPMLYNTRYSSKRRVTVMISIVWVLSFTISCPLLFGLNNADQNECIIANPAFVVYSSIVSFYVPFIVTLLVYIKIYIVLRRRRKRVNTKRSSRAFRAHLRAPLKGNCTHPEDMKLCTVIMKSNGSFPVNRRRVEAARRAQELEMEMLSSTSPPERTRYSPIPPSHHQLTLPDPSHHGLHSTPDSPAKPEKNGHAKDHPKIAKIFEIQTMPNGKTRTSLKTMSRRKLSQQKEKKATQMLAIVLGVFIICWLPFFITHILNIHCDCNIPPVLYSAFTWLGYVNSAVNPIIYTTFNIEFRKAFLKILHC

Row | SMILES | Ki [1] [nM] | Ki [2] [nM] | Log Ki [3]
1 | Oc1cc2c(cc1Cl)CCN[C@H]2c1ccccc1 | 141 | 3720 | -6.96
2 | CN1Cc2cc(Cl)c(O)cc2[C@H](c2ccccc2)C1 | 87.1 | 263 | -6.99
3 | Oc1cc2c(cc1Cl)CNC[C@H]2c1ccccc1 | 282 | 1820 | -6.2

Results, then the compound that gave them:

Row | Ki [1] [nM] | Ki [2] [nM] | Log Ki [3] | SMILES
4 | 6.61 | 1860 | -8.18 | CN1CCc2cc(Cl)c(O)cc2[C@@H]1c1ccccc1
5 | 447 | 19100 | -6.25 | CN1CCc2cc(Cl)c(O)cc2[C@H]1c1ccccc1
6 |  |  | -9.33 | CN1CCc2cc(Cl)c(O)cc2[C@@H](c2ccccc2)C1 [SCH-23390]
7 | 26.9 | 145 | -8.2 | CN1CCc2cc(Cl)c(O)cc2[C@@H]1Cc1ccccc1
8 | 178 | 1910 | -6.69 | CCCN1CCc2cc(Cl)c(O)cc2[C@@H]1c1ccccc1
